Take `CC(C)(C)OC(=O)N1CO[C@@](O[Si](C)(C)C)(C(F)(F)F)[C@@H]1Cc1ccccc1`: the melting point is 53 to 55 °C.
As for `O=C(O)CN1C(=O)C(=Cc2ccc(OCc3ccccc3)c(OCc3ccccc3)c2)SC1=S`, the melting point is 235 to 238 °C.
In turn, `COc1cc(NC2CC3CCC(C2)N3Cc2ccccc2)ccc1C(N)=O` (configuration not stated) gave a melting point of 138 to 140 °C.
As to `CC(C)Nc1ccc(O)cc1`, the melting point was 143 °C.
For the molecule `O=[N+]([O-])c1ccc2nc(CS(=O)c3ccccn3)[nH]c2c1` (configuration not stated), the melting point was 207 to 209 °C.
The figure for `O=C(O)c1cc(C(c2ccccc2)(c2ccccc2)c2ccccc2)ccc1O` is 234 to 237 °C; for `Cc1ncccc1CN(CCn1cc(C)c2occc2c1=O)Cc1ccc2c(c1)N(CC(C)C)C(=O)C(C)(C)C(=O)N2` it is 206 to 208 °C; for `CCC(O)=C1SC(=S)N(c2ccc(Cl)cc2)C1=O` it is 145 to 149 °C.
In turn, `CS(=O)c1ccc(COc2cccc(C(=O)Nc3ccc(C#N)cc3)c2)cc1` (configuration not stated) displayed a melting point of 174 to 175 °C.
`CN1CCC(NC(c2cccc(C(F)(F)F)c2)c2nc3ccccc3[nH]2)CC1` (configuration not stated) yielded a melting point of 90 °C.
Molecule `CC(=O)NC1CCN(Cc2ccc(CCn3cnc4cc(-c5ccc(Cl)cc5)sc4c3=O)cc2)C1` (configuration not stated) displayed a melting point of 196 to 198 °C.
Next, `C=CCOc1ccc(Cl)cc1C(=O)OC`: 25 to 26 °C; `NS(=O)(=O)c1ccc(-c2noc(-c3cnn4c(C(F)F)cc(-c5ccc(Cl)cc5)nc34)n2)s1`: 259 °C; `O=C(NCC1CC1)C(c1ccccc1)c1ccccc1`: 130 °C.
`Nc1c(O)cc2c(c1[N+](=O)[O-])CCC2` had a melting point of 196 to 198 °C.
For the molecule `CN(c1cccc2cc(C3=NCC(CCO)S3)[nH]c12)S(=O)(=O)c1cccs1` (configuration not stated), the melting point lay in the range of 168 to 169 °C.
Next, `COc1ccccc1Cn1c(=O)c2c(N3CCN(C)CC3)cc(Cl)cc2n(Cc2ccccc2)c1=O`: 91 to 96 °C.
The molecule `CC1CCCN(C(=O)C2Cc3cc(O)ccc3N2c2ccc(=O)n(C)n2)C1` (configuration not stated) yielded a melting point of 253 to 256 °C.
In the case of `CC(C)(C)OC(=O)CNC1(c2ccccc2Cl)C(=O)Nc2ccc(Cl)cc21` (configuration not stated), the melting point stood at 217 °C.
Molecule `CCCCn1c(=O)c(NC(=O)Nc2c(C(C)C)cc(N)cc2C(C)C)c(-c2cccc(OCCCO)c2)c2cccnc21` had a melting point of 153 to 155 °C.
The figure for `Cc1c(C)c2c(c(C)c1Br)OCC2c1ccc(C(C)C)cc1` (configuration not stated) is 56 to 57 °C.
Next, `O=C(Nc1ccccc1)N1Cc2sccc2C(O)C1` (configuration not stated): 200 °C; `CCNc1nc(Br)cn2c(Br)cnc12`: 131 °C.
The figure for `CCC(=O)NCCC1=C(Cc2ccccc2)Cc2ccc(OC)cc21` is 149 to 151 °C.
Molecule `CC(=O)OC1C(Oc2cc(C)cc(O)c2C(=O)CCc2ccc3occc3c2)OC(CO)C(O)C1OC(C)=O` (configuration not stated) returned a melting point of 151 to 153 °C.
Next, `Cc1cccc(C(=O)CC(=O)C2CCCCC2)c1O`: 42 to 43 °C; `Cc1cnc2c(c1)S(=O)(=O)N(Cc1ccccc1)C2=O`: 167 to 170 °C; `O=C(Nc1cccnc1)N1CCc2cc(C(F)(F)F)ccc21`: 188 to 189 °C.
The figure for `O=C1c2ccccc2C(=O)N1CCCCN1CCN(C(c2ccccc2)c2ccccc2)CC1` is 125 to 129 °C; for `Nc1sc(CC(=O)O)cc1C(=O)c1ccccc1Cl` it is 172 to 182 °C; for `C[C@H]1C(=O)N2[C@H](c3ccc4c(c3)OCO4)c3[nH]c4ccccc4c3C[C@@H]2C(=O)N1C` it is 219 to 220 °C.
For the molecule `COC(=O)C(Oc1ccc(Cl)cc1)c1ccc(I)cc1` (configuration not stated), the melting point lay within 122 to 125 °C.
`C#CC(Oc1cc(C(=O)OC)cc(OC)c1OC)C1CC1` (configuration not stated) displayed a melting point of 93 to 94 °C.
For `CC(C)(C)OC(=O)N1CCC(Nc2nccc(-c3c(-c4ccc(F)cc4)nc4occn34)n2)CC1`, the melting point amounted to 175 °C.
In turn, `CC(=O)Nc1cc(SCC(C)C)ccc1[N+](=O)[O-]` gave a melting point of 53 to 55 °C.
Next, `OCCON=Cc1ccncc1`: 78 to 80 °C.
Next, `CC(C)(C)c1ccc(C[C@H]2NC(=O)O[C@H]2c2ccc(F)cc2)cc1` (racemic): 218 to 219 °C; `CC(=O)NCC1CC(c2ccc(-n3cccc3)c(F)c2)=NO1` (single isomer, unassigned; (-)): 176 to 177 °C; `COc1cc(OC)nc(NC(=O)NS(=O)(=O)c2ccccc2C=O)n1`: 180 °C.
Next, `CN(CCOc1ccc(CC(OCC(F)(F)F)C(=O)O)cc1)c1nc2ccccc2o1` (configuration not stated): 116 to 117 °C.
In the case of `N#Cc1ccc2oc(CCc3cc4cc(C#N)ccc4o3)cc2c1`, the melting point lay within 243 to 244 °C.
The figure for `O=C1CC(c2ccc(O)cc2)=Nc2ccc(N3CCOCC3)cc21` is 340 to 342 °C; for `CC(C)(C)c1ccc2c(c1O)C(=O)c1c(O)cccc1C2` it is 126 to 127 °C; for `CCCCCCCCCCCCCCCCCCN=C=NCCCCCCCCCCCCCCCCCC` it is 65 °C.
Next, `O=C(Oc1ccccc1)N1CCN(c2nn(S(=O)(=O)c3ccccc3)c3ccccc23)CC1`: 112 to 114 °C.
The figure for `CC(C(=O)O)c1ccc(C=C2CCCC2O)cc1` (configuration not stated) is 125 to 132 °C.
In turn, `CCc1ccc2c(c1)C=Cc1sc(C)nc1C2c1cn(Cc2cccc(C(=O)O)c2)c(=O)[nH]c1=O` (configuration not stated) registered a melting point of 159 to 161 °C.
Consider `O=C(Nc1ccc(-n2nc(C(F)(F)F)cc2Br)cc1)c1ccncc1F`, for which the melting point is 143 to 144 °C.
Turning to `c1cc2c3c(c1)C[C@@H]1CCC[C@@H]1N3CCNC2` (relative stereo), the melting point lay in the range of 180 to 190 °C.
Next, `CCOC(=O)C(C)(C)c1nc2ccc(OCCCN3CCC(OC(c4ccccc4)c4ccccc4)CC3)nn2c1Cl`: 186 to 188 °C.
The figure for `Cc1cc(-n2cncn2)cc(I)c1N` is 151 to 154 °C.
The figure for `CCCCCC#CCC(CC#CCCCCC)(C(=O)O)S(=O)(=O)c1ccc(OC)cc1` is 61 °C.
In turn, `O=C(NCC1(c2ccccc2)CCCCC1)Nc1ccc(Cl)cc1` gave a melting point of 164 to 166 °C.
The figure for `CCC(C)C1C(=O)NN(c2ccc(Cl)c(Cl)c2)C1=O` (configuration not stated) is 118 to 120 °C.
As to `CC(C)(C)C(=O)C(=Cn1ccnc1)Oc1ccc(Cl)cc1`, the melting point fell in the range of 94 to 95 °C.
Next, `O=C(CCNC(=O)OCc1ccccc1)NC1OC(C(=O)O)CC1O` (configuration not stated): 195 to 198 °C; `CCOC(=O)[C@H]1C2C[C@@H](O)[C@](O)(C(=O)OCc3ccccc3)[C@@H]21` (some centres not stated): 112 to 114 °C; `COc1c(C)cc2c(c1C)Cc1c-2[nH]c2c(C)cc(C)cc12`: 210 °C.
Next, `CNC1Oc2cc(Cl)cc(-c3cc(F)ccc3F)c2O1` (configuration not stated): > 250 °C; `CCS(=O)(=O)N[C@H](C(=O)NCc1ccc(OCC#Cc2ccc(Cl)cc2)c(OC)c1)C(C)C`: 162 to 163 °C; `Oc1cnc2cc(F)ccc2n1`: 304 to 305 °C.
On to `O=C(NCc1ccc(Cl)cc1)c1cnc2c(F)c(Oc3ccc(CO)cc3)c(F)cc2c1O`, for which the melting point was 235 to 240 °C.

Usually melting point stands for the temperature of the solid-liquid transition.

Source of the values: a melting point compilation (Tetko et al.; mined from patent text by program, amines drawn as free bases though some values may be those of a salt).
